The record followed here is PubChem BioAssay (NCI).

Among the test systems are NCI/ADR-RES ovarian; SF-268 CNS; OVCAR-8 ovarian; HOP-92 NSCLC; CCRF-CEM leukemia; PC-3 prostate; NCI-H460 lung; RXF 393 renal; SR leukemia; SK-MEL-5 melanoma.
Common to all, as to test: NCI tumour cell line growth inhibition, 48 h

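Dose response: 5 concentrations. Exposure: 48 h. Format: 96-well plates. Endpoint: linear interpolation; highest concentration if not reached. GI50 marks 50% less growth. TGI: concentration producing complete growth inhibition.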

For `O=C(/C=C/N1CCN(c2cccc(Cl)c2)CC1)c1ccc(Cl)cc1`, the GI50 with NCI/ADR-RES ovarian was 33200 nM; in the experiment with SF-268 CNS, 19800 nM; in the experiment on OVCAR-8 ovarian it was 34500 nM; in the experiment with HOP-92 NSCLC, 15100 nM; in the experiment on CCRF-CEM leukemia, 22600 nM; with PC-3 prostate, 25300 nM. Further, the GI50 is 33600 nM in the experiment on NCI-H460 lung, 39100 nM in the experiment with RXF 393 renal, 26100 nM with SR leukemia and 16500 nM with SK-MEL-5 melanoma. The TGI in the experiment with NCI/ADR-RES ovarian is over 100 µM; with SF-268 CNS, 53.2 µM; with OVCAR-8 ovarian it was over 100 µM; in the experiment on HOP-92 NSCLC, 57.7 µM; with CCRF-CEM leukemia, 66.7 µM; in the experiment with PC-3 prostate, over 100 µM. Further, the TGI with NCI-H460 lung is over 100 µM; with RXF 393 renal, over 100 µM; with SR leukemia, 59.3 µM; with SK-MEL-5 melanoma, 31.5 µM.

Take `COc1cc(-c2nn(-c3cccc(NC(=O)c4cccc(C(F)(F)F)c4)c3)cc2-c2ccncc2)ccc1Cl`: the GI50 in the experiment with NCI/ADR-RES ovarian was 1090 nM; in the experiment on SF-268 CNS it was 2130 nM; in the experiment on OVCAR-8 ovarian it was 2000 nM; in the experiment on HOP-92 NSCLC, 554 nM; in the experiment on CCRF-CEM leukemia, 1450 nM; in the experiment with PC-3 prostate it was 1230 nM. Moreover, the GI50 with NCI-H460 lung is 1450 nM; with RXF 393 renal, 812 nM; with SR leukemia it was 838 nM; in the experiment on SK-MEL-5 melanoma, 978 nM. Moreover, the TGI in the experiment on NCI/ADR-RES ovarian was 3.17 µM; in the experiment with SF-268 CNS, over 50 µM; with OVCAR-8 ovarian it was over 50 µM; with HOP-92 NSCLC it was 3.12 µM; with CCRF-CEM leukemia, over 50 µM; in the experiment on PC-3 prostate, over 50 µM. The TGI with NCI-H460 lung worked out at 9.27 µM; in the experiment on RXF 393 renal, 3.15 µM; in the experiment on SR leukemia, 4.59 µM; in the experiment with SK-MEL-5 melanoma, 2.47 µM.

`Cc1c(-c2ccc(N3CCc4cccc(C(=O)Nc5nc6ccccc6s5)c4C3)nc2C(=O)O)cnn1CC12CC3CC(CC(C3)C1)C2`: the GI50 with NCI/ADR-RES ovarian is 14700 nM; in the experiment on SF-268 CNS, 8050 nM; in the experiment with OVCAR-8 ovarian it was 7490 nM; with HOP-92 NSCLC, under 10 nM; in the experiment on CCRF-CEM leukemia it was under 10 nM; in the experiment with PC-3 prostate it was 1420 nM. The GI50 in the experiment with NCI-H460 lung was 8220 nM; in the experiment on RXF 393 renal, 85.3 nM; with SR leukemia, 12800 nM; with SK-MEL-5 melanoma, 2790 nM. The TGI in the experiment with NCI/ADR-RES ovarian was 38 µM; in the experiment on SF-268 CNS, 24.8 µM; in the experiment on OVCAR-8 ovarian, 33 µM; in the experiment with HOP-92 NSCLC, under 0.01 µM; in the experiment on CCRF-CEM leukemia, 10.4 µM; in the experiment on PC-3 prostate, 6.15 µM. In addition, the TGI was 24.6 µM with NCI-H460 lung, 4.61 µM in the experiment with RXF 393 renal, over 57.4 µM in the experiment on SR leukemia and 9.79 µM in the experiment with SK-MEL-5 melanoma.

As for `Cn1c(=O)c(-c2c(Cl)cccc2Cl)cc2cnc(Nc3ccc(N4CCOCC4)cc3)nc21`, the GI50 in the experiment on NCI/ADR-RES ovarian was 15.8 nM; with SF-268 CNS, 391 nM; with OVCAR-8 ovarian it was 1090 nM; in the experiment on HOP-92 NSCLC, 211 nM; in the experiment on CCRF-CEM leukemia, 27.2 nM; with PC-3 prostate it was 474 nM. Also, the GI50 is 570 nM with NCI-H460 lung, 1360 nM in the experiment on RXF 393 renal, 140 nM in the experiment with SR leukemia and 149 nM with SK-MEL-5 melanoma. The TGI was 0.09 µM in the experiment on NCI/ADR-RES ovarian; over 27.9 µM with SF-268 CNS; over 100 µM in the experiment with OVCAR-8 ovarian; 1.93 µM with HOP-92 NSCLC; 0.332 µM in the experiment with CCRF-CEM leukemia; over 100 µM in the experiment with PC-3 prostate. The results for the TGI with RXF 393 renal, in the experiment on SR leukemia and in the experiment with SK-MEL-5 melanoma were 3.86 µM, 0.471 µM and 1.34 µM, respectively.

Turning to `O=C(c1ccccc1)c1ccc(N2C(=O)C3C4c5ccccc5C(/C=C/C(=O)c5ccccn5)(c5ccccc54)C3C2=O)cc1` (centres undefined), the GI50 in the experiment on NCI/ADR-RES ovarian was 2680 nM; in the experiment on SF-268 CNS, over 23100 nM; in the experiment on OVCAR-8 ovarian it was 2560 nM; in the experiment with HOP-92 NSCLC, 1800 nM; in the experiment on CCRF-CEM leukemia, 976 nM; in the experiment with PC-3 prostate, 3740 nM. Further, the GI50 with NCI-H460 lung was 2670 nM; with RXF 393 renal it was 1560 nM; with SR leukemia, 1370 nM; in the experiment on SK-MEL-5 melanoma it was 2360 nM. Besides, the TGI is 12.8 µM in the experiment with NCI/ADR-RES ovarian; over 100 µM in the experiment with SF-268 CNS; over 100 µM in the experiment on OVCAR-8 ovarian; 7.13 µM in the experiment on HOP-92 NSCLC; over 100 µM with CCRF-CEM leukemia; over 100 µM in the experiment with PC-3 prostate. The TGI in the experiment on NCI-H460 lung was 9.23 µM; with RXF 393 renal it was 3.07 µM; with SR leukemia it was over 100 µM; in the experiment on SK-MEL-5 melanoma, 5.71 µM.

Turning to `CCC(=C(c1ccc(OCCN(CC)CC)cc1)c1ccc(OCCN(CC)CC)cc1)c1ccc(Cl)cc1`, the GI50 in the experiment with NCI/ADR-RES ovarian is 625 nM; with SF-268 CNS, 604 nM; in the experiment on OVCAR-8 ovarian, 685 nM; in the experiment on HOP-92 NSCLC it was 500 nM; in the experiment on CCRF-CEM leukemia, 641 nM; in the experiment on PC-3 prostate it was 581 nM. Further, the GI50 with NCI-H460 lung was 619 nM; in the experiment on RXF 393 renal it was 485 nM; in the experiment with SR leukemia, 249 nM; in the experiment on SK-MEL-5 melanoma, 593 nM. For the same molecule, the TGI in the experiment on NCI/ADR-RES ovarian was 1.21 µM; in the experiment on SF-268 CNS it was 1.23 µM; in the experiment on OVCAR-8 ovarian, 1.51 µM; in the experiment with HOP-92 NSCLC, 1.18 µM; in the experiment on CCRF-CEM leukemia, 1.74 µM; in the experiment on PC-3 prostate it was 1.24 µM. Also, the TGI in the experiment with NCI-H460 lung was 1.17 µM; in the experiment on RXF 393 renal, 0.962 µM; in the experiment with SR leukemia it was 0.981 µM; with SK-MEL-5 melanoma, 1.06 µM.

For the molecule `O=C1OC(c2ccccc2)=N/C1=C\c1ccc(N(CCCl)CCCl)cc1`, the TGI in the experiment with NCI/ADR-RES ovarian is over 100 µM; in the experiment with SF-268 CNS, over 100 µM; in the experiment with OVCAR-8 ovarian, over 100 µM; in the experiment on HOP-92 NSCLC, over 84.6 µM; with CCRF-CEM leukemia it was over 100 µM; in the experiment with PC-3 prostate, over 100 µM. Besides, the TGI in the experiment on NCI-H460 lung is over 100 µM; in the experiment with RXF 393 renal, over 100 µM; in the experiment on SR leukemia, over 69.7 µM; with SK-MEL-5 melanoma it was over 100 µM.
